These results are taken from patent US8026236B2, “6-phenyl-1H-imidazo[4,5-c]pyridine-4-carbonitrile derivatives” (N.V. Organon, priority 2009, dated 2011).

SMILES strings stand for the structures.

The assay has as its target recombinant human Cathepsin S (Homo sapiens, UniProt P25774). Kind of assay: Cathepsin S assay procedure (inhibition of recombinant human Cathepsin S, fluorogenic substrate Z-Val-Val-Arg-AMC). Type of assay: biochemical. The settings on record: pH5.5, 20 minutes, read-out: pIC50 (negative logarithm of the IC50 concentration) for inhibition of human cathepsin S (converted). The procedure:
To a 384 well microtitre plate is added 10 μl of a 1000 solution of test compound in assay buffer (100 mM sodium acetate pH5.5, 5 mM EDTA, 5 mM dithiothreitol) with 10% dimethylsulfoxide (DMSO), plus 200 of 2500 solution of the substrate Z-Val-Val-Arg-AMC (7-amido-coumarine derivative of the tripeptide N-benzyloxy-carbonyl-Val-Val-Arg-OH) in assay buffer and 45 μl of assay buffer. 25 μl of a 2 mg/l solution of activated recombinant human cathepsin S, in assay buffer, is then added to the well, yielding a final inhibitor concentration of 10 μM. Enzyme activity is determined by measuring the fluorescence of the liberated aminomethylcoumarin at […] using 390 nm excitation, at 20 minutes. Percentage enzyme activity is calculated by comparison of this activity to that of a solution containing no inhibitor. Compounds are subsequently subjected to a dose response curve analysis in order to determine IC50 values for active compounds (where IC50 is the concentration of test compound causing 50% inhibition of the enzymatic activity). Compounds of the invention typically have a pIC50 (negative logarithm of the IC50 concentration) for inhibition of human cathepsin S of more than 6. Most compounds of the invention have a pIC50 of more than 7, such as exemplified by the compounds of examples 1a, 1b, 2a, 7d, 12a, 14a, 14b, 14c, 14d, 14e, 14f, 14g, 14h, 14i, 17, 18.

Sequence of recombinant human Cathepsin S (P25774 115-331): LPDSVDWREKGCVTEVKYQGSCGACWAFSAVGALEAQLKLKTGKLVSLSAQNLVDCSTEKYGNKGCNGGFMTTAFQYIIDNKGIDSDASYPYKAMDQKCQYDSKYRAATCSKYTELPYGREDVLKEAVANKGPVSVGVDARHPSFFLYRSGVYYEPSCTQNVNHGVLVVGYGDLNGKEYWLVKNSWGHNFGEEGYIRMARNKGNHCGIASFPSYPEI

As for `CC(=O)Nc1cccc(COc2ccc(-c3cc4c(ncn4C)c(C#N)n3)cc2C(F)(F)F)c1` [Example 17], the IC50 is below 100 nM.
